From US11229654B2, “Combination therapy of tetracyclic quinolone analogs for treating cancer” (Senhwa Biosciences, Inc., priority 2015, dated 2022)
Where two headings read alike, the source gives them in different places.

Key:
[1] = test system: HT cell; assay: Anti-proliferation assay (MTS), HT cells; type: cell-based, human
Experimental: (§1) Three human Lymphoma cell lines Toledo, MC116 and HT were purchased from the Bioresource Collection and Research Center (BCRC, Taiwan). All cells were incubated in a humidified atmosphere containing 5% C02 at 37° C.
(§2) CAL-101, also known as Idelalisib, is a PI3K-delta inhibitor with potential immunomodulating and antineoplastic activities. Anticancer activity of the combination of Compound A and CAL-101 on three human Lymphoma cell lines (Toledo, MC116, HT) was assessed using in vitro cell proliferation assay. Cell proliferation of drug-treated human cancer cells was determined at 96 hours post-treatment using the MTS (Promega) colorimetric assay.
(§3) Corrected absorbance values were obtained by subtracting the average 490 nm absorbance of the control wells (medium only, no cell) from all other absorbance values. Percentage inhibition of cell growth for compound treatment was calculated using this formula: […]
(§4) The sigmoidal dose-response curve is generated by fitting the percentage inhibition value as a function of logarithm of compound concentrations using GraphPad Prism software. IC50 values are defined as the concentration needed for a 50% inhibition of cell growth. […] All data represent the results of triplicate experiments.
(§5) Estimated IC50 and IC25 values were calculated based on non-linear regression of the dose-response curves of the cell proliferation ratio (%) as a function of logarithm of drug concentrations in single treatments.

[2] = test system: MC116 cell; assay: Anti-proliferation assay (MTS), MC116 cells; type: cell-based, human
Experimental: as §1, §2, §3, §4, §5

[3] = test system: Toledo cell; assay: Anti-proliferation assay (MTS), Toledo cells; type: cell-based, human; details: for IC50 / Estimated IC25: single drug treatment, 96 hours post-treatment; for IC50: read-out: Estimated IC50
Experimental: as §1, §2, §3, §4, §5

[4] = test system: BRCA1 negative (UWB1.289-2945) human ovarian cancer cell line; assay: CellTiter-Glo cell viability assay, BRCA1 negative ovarian cancer cells; type: cell-based; details: for Cell toxicity of cytokine by itself: 0-5 ng/mL, BRCA1 negative ovarian cancer cell line; for Effect on cell toxicity in the presence of Compound A: cytokine 0-5 ng/mL together with Compound A
Experimental: (§6) BRCA1 negative (UWB1.289-2945) and BRCA1 positive (UWB1.289) human ovarian cancer cell lines were purchased from the American Type Culture Collection (ATCC). Those cell were incubated in a humidified atmosphere containing 5% C02 at 37° C.
(§7) The anticancer activity of Compound A on BRCA1 negative and BRCA1 positive human ovarian cancer cell lines were also assessed using in vitro cell proliferation assay. Cell proliferation of drug-treated human cancer cell was determined at 72 hours post-treatment using the CellTiter-Glo® Luminescent cell viability assay (Promega). IC50 values are defined as the concentration needed for a 50% inhibition of cell growth and were calculated in GraphPad. The anti-proliferative effects of Compound A alone and in combination with cytokines on these two cell lines are shown in FIGS. 4-6.
(§8) Percentage inhibition of cell growth for compound treatment was calculated using this formula: […]
(§9) The data were processed using built-in excel-macro. Cell viability/proliferation was expressed as […] with respect to the average signal from the untreated control wells of the respective plate. Out-liar values (of the triplicate) were rejected during QC. The processed data were plotted using Graphpad software. Statistical analysis was done using Excel (Microsoft) and Pair-wise comparison of two groups was made using the student's t test. All data represent the results of triplicate experiments.
(§10) Here, two types of cytokines, TNF-α and IFN-γ, were used (0, 0.008, 0.04, 0.2, 1, 5 ng/mL) in response to together with Compound A.

[5] = test system: BRCA1 positive (UWB1.289) human ovarian cancer cell line; assay: CellTiter-Glo cell viability assay, BRCA1 positive ovarian cancer cells; type: cell-based; details: for Cell toxicity of cytokine by itself: 0-5 ng/mL, BRCA1 positive ovarian cancer cell line
Experimental: as §6, §7, §8, §9, §10

[6] = test system: HBCx-17 (BRCA2 mutant) cancer cell line; assay: Chemokine expression in BRCA2 mutant cancer cells; type: cell-based
Description: (§11) FIG. 8A-8C show effects of Compound A treatment on chemokine expressions in BRCA2 wild type (WT) and mutant (Mut) PDX-derived breast cancer cells.
(§12) Compound A was applied to both HBCx-39 (BRCA2 wild type) and HBCx-17 (BRCA2 mutant) cancer cell lines in vitro. HBCx-17 is a homologous recombination deficiency tumor cell line having BRCA2 mutation. […] CCL21 and CXCL9 mRNA expression in cancer cells having BRCA2 mutant compared to wild type cancer cells.

[7] = test system: HBCx-39 (BRCA2 wild type) cancer cell line; assay: Chemokine expression in BRCA2 wild type cancer cells; type: cell-based
Description: as §11, §12

[8] = Homo sapiens, single drug treatment, 96 hours post-treatment, read-out: Estimated IC50
[9] = Homo sapiens, single treatment, read-out: IC50
[10] = single drug treatment, 96 hours post-treatment

CC[C@H](Nc1ncnc2[nH]cnc12)c1nc2cccc(F)c2c(=O)n1-c1ccccc1 [CAL-101]
inhibition at 2.6667 µM ([1]; Homo sapiens, IC25 conc. used: Compound A 133.3 nM, CAL-101 2666.7 nM): 19.7 ± 4.3%
inhibition at 8 µM ([1]; Homo sapiens, IC50 conc. used: Compound A 400 nM, CAL-101 8000 nM): 37.6 ± 1.5%
IC50 [1, 8]: 10100 ± 1380 nM
IC50 [1, 9]: > 10000 nM
Estimated IC25 [1, 10]: 3357.3 ± 461.0 nM
inhibition at 17.5 µM ([2]; Homo sapiens, IC25 conc. used: Compound A 150 nM, CAL-101 17500 nM): 9.2 ± 3.4%
inhibition at 35 µM ([2]; Homo sapiens, IC50 conc. used: Compound A 450 nM, CAL-101 35000 nM): 70.4 ± 3.1%
IC50 [2, 8]: 118000 ± 29600 nM
IC50 [2, 9]: > 10000 nM
Estimated IC25 [2, 10]: 39286.7 ± 9871.2 nM
inhibition at 0.4 µM ([3]; Homo sapiens, IC50 conc. used: Compound A 50 nM, CAL-101 400 nM): 49.6 ± 1.7%
IC50 ([3]; Homo sapiens): 76 nM
Estimated IC25 [3]: 25.3 ± 14.9 nM

TNF-α
Cell toxicity of cytokine by itself [4]: minimal, but increasing trend of cell toxicity with increasing dose
Effect on cell toxicity in the presence of Compound A ([4]; BRCA1 negative cells): additive effect
Cell toxicity of cytokine by itself [5]: minimal, but increasing trend of cell toxicity with increasing dose

Cc1cnc(CNC(=O)c2c(=O)c3ccc(N4CCCN(C)CC4)nc3n3c2sc2ccccc23)cn1 [Compound A, 2-(4-Methyl-[1,4]diazepan-1-yl)-5-oxo-5H-7-thia-1,11b-diaza-benzo[c]fluorene-6-carboxylic acid (5-methyl-pyrazin-2-ylmethyl)-amide]
CCL9, CCL21 and CXCL9 mRNA expression ([6]; BRCA2 mutant compared to wild type cancer cells): increased more
Production of chemokines in tumor cells ([6]; HBCx-17 BRCA2 mutant): capable of inducing the production of several important chemokines
IC50 [1, 8]: 526 nM
Inhibition (%) ([1]; IC25 conc. used: Compound A 133.3 nM, CAL-101 2666.7 nM): 15.2 ± 0.9%
Inhibition (%) ([1]; IC50 conc. used: Compound A 400 nM, CAL-101 8000 nM): 41.2 ± 1.9%
Estimated IC25 [1, 10]: 175.1 ± 6.6 nM
IC50 ([4]; Homo sapiens, BRCA1 negative cells, 72 hours post-treatment): 2.34 to 3.78 nM
IC50 [2, 8]: 723 nM
Inhibition (%) ([2]; IC25 conc. used: Compound A 150 nM, CAL-101 17500 nM): 44.3 ± 5.5%
Inhibition (%) ([2]; IC50 conc. used: Compound A 450 nM, CAL-101 35000 nM): 83.4 ± 1.2%
Estimated IC25 [2, 10]: 241.0 ± 6.5 nM
IC50 ([3]; Homo sapiens): 45.9 nM
Inhibition (%) ([3]; IC50 conc. used: Compound A 50 nM, CAL-101 400 nM): 25.6 ± 2.5%
Estimated IC25 [3]: 15.3 ± 0.8 nM
Production of chemokines in tumor cells [7]: capable of inducing the production of several important chemokines
Maximum toxicity ([5]; BRCA1 positive UWB1.289, highest concentration (100 nM), 72 hours): ≤ 40%

IFN-γ: cytokine, Interferon gamma
Cell toxicity of cytokine by itself [4]: minimal, but increasing trend of cell toxicity with increasing dose
Effect on cell toxicity in the presence of Compound A ([4]; BRCA1 negative cells): additive effect
Cell toxicity of cytokine by itself [5]: minimal, but increasing trend of cell toxicity with increasing dose
